Consider 1 cell line from the supplement of paper PMC10307832.

Assay in all cases: relative viability (nuclei count vs DMSO), 5 days (fraction); higher = more cells survive
Compound in the test “Quizartinib + Tozasertib”: CC(C)(C)c1cc(NC(=O)Nc2ccc(-c3cn4c(n3)sc3cc(OCCN5CCOCC5)ccc34)cc2)no1 [Quizartinib] + Cc1cc(Nc2cc(N3CCN(C)CC3)nc(Sc3ccc(NC(=O)C4CC4)cc3)n2)n[nH]1 [Tozasertib] (partner 0.1 µM)
Summed up:
(§1)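 Lung cancer cell lines in 1536-well plates were dosed by pin tool the day after seeding, either with one drug alone or with a fixed anchor-drug dose plus five library-drug doses (not always all listed) in √10 steps. After 5 days, cells were fixed and their nuclei stained in one step (final 0.05% Triton X-100, 1% formaldehyde, 1 ug/ml Hoechst), then counted on 4× images. Relative viability is the nuclei count in treated wells divided by that in vehicle wells. Values are medians of duplicate plates.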

Compound in the test “Quizartinib + Pemetrexed”: CC(C)(C)c1cc(NC(=O)Nc2ccc(-c3cn4c(n3)sc3cc(OCCN5CCOCC5)ccc34)cc2)no1 [Quizartinib] + Nc1nc2[nH]cc(CCc3ccc(C(=O)N[C@@H](CCC(=O)O)C(=O)O)cc3)c2c(=O)[nH]1 [Pemetrexed] (partner 0.2 µM)
The method, boiled down:
as §1

Compound in the test “YM155 + Palbociclib”: COCC[n+]1c2c(n(Cc3cnccn3)c1C)C(=O)c1ccccc1C2=O [YM155] + CC(=O)c1c(C)c2cnc(Nc3ccc(N4CCNCC4)cn3)nc2n(C2CCCC2)c1=O [Palbociclib] (partner 0.5 µM)
The method, boiled down:
as §1

Compound in the test “YM155 + Tozasertib”: COCC[n+]1c2c(n(Cc3cnccn3)c1C)C(=O)c1ccccc1C2=O [YM155] + Cc1cc(Nc2cc(N3CCN(C)CC3)nc(Sc3ccc(NC(=O)C4CC4)cc3)n2)n[nH]1 [Tozasertib] (partner 0.1 µM)
The method, boiled down: as §1

Compound in the test “Quizartinib + Olaparib”: CC(C)(C)c1cc(NC(=O)Nc2ccc(-c3cn4c(n3)sc3cc(OCCN5CCOCC5)ccc34)cc2)no1 [Quizartinib] + O=C(c1cc(Cc2n[nH]c(=O)c3ccccc23)ccc1F)N1CCN(C(=O)C2CC2)CC1 [Olaparib] (partner 8 µM)
The method, boiled down: as §1

Compound in the test “Quizartinib + Vorinostat”: CC(C)(C)c1cc(NC(=O)Nc2ccc(-c3cn4c(n3)sc3cc(OCCN5CCOCC5)ccc34)cc2)no1 [Quizartinib] + O=C(CCCCCCC(=O)Nc1ccccc1)NO [Vorinostat] (partner 1 µM)
The method, boiled down: as §1

NCI-H1648: the relative viability with Quizartinib + Tozasertib (first compound 0.01 µM) stood at 0.38; in the test with Quizartinib + Tozasertib (first compound 0.03162 µM), 0.341; with Quizartinib + Tozasertib (first compound 0.1 µM), 0.585; with Quizartinib + Pemetrexed (first compound 0.003162 µM) it was 0.617; with Quizartinib + Pemetrexed (first compound 0.03162 µM), 0.552; with Quizartinib + Pemetrexed (first compound 0.1 µM), 1.05. The relative viability turned out to be 0.299 in the test with YM155 + Palbociclib (first compound 0.006325 µM); 0.306 with YM155 + Palbociclib (first compound 0.02 µM); 0.295 with YM155 + Palbociclib (first compound 0.06325 µM); 0.386 with YM155 + Tozasertib (first compound 0.002 µM); 0.605 in the test with YM155 + Tozasertib (first compound 0.006325 µM); 0.586 with YM155 + Tozasertib (first compound 0.02 µM). For the same cell line, the relative viability was found to be 0.427 with YM155 + Tozasertib (first compound 0.06325 µM); 0.985 with Quizartinib + Olaparib (first compound 0.003162 µM); 0.604 with Quizartinib + Olaparib (first compound 0.03162 µM); 0.909 in the test with Quizartinib + Olaparib (first compound 0.1 µM); 0.315 with Quizartinib + Vorinostat (first compound 0.003162 µM); 0.32 in the test with Quizartinib + Vorinostat (first compound 0.03162 µM). Besides, the relative viability with Quizartinib + Vorinostat (first compound 0.1 µM) is 0.927.
